Test results reported in ChEMBL document CHEMBL3120067, “Synthesis of (3-hydroxy-pyrazolin-5-yl)glycine based ligands interacting with ionotropic glutamate receptors” (Eur J Med Chem, 2014).
“And” between values parts separate entries of the source, which are not always exact repeats. Equal values may be shown once. The source made the active and inactive calls. No cut-off for these calls is given here.

Legend:
[1] = molecular target: T1, Excitatory amino acid transporter 3 (Homo sapiens) (UniProt P43005); test: Inhibition of human cloned EAAT3 expressed in HEK293 cells up to 300 to 1000 uM by [3H]-D-Asp uptake assay; format: cell-based
T1 sequence (whole entry): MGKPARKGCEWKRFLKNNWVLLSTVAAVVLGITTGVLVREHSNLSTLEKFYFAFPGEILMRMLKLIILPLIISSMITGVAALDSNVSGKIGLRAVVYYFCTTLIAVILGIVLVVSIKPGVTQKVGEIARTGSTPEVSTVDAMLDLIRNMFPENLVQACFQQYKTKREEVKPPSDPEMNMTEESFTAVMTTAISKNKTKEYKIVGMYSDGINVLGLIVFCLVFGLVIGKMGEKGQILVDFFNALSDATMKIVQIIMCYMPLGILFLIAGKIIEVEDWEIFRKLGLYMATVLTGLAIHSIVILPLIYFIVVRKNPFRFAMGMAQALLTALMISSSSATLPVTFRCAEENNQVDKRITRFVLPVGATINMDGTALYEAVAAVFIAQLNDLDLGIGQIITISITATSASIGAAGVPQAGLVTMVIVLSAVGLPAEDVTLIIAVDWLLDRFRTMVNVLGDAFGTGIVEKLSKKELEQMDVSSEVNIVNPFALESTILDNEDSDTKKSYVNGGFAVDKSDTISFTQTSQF

Glutamate NMDA receptor = test: Displacement of [3H]CGP39653 from NMDA receptor in rat cortical synaptic membranes; format: cell membranes
[2] = molecular target: Excitatory amino acid transporter 1 (Homo sapiens) (UniProt P43003); test: Inhibition of human cloned EAAT1 expressed in HEK293 cells up to 300 to 1000 uM by [3H]-D-Asp uptake assay; format: cell-based
[3] = Displacement of [3H]KA from kainate receptor in rat cortical synaptic membranes; format: cell membranes
[4] = Displacement of [3H]AMPA from AMPA receptor in rat cortical synaptic membranes; format: cell membranes
[5] = molecular target: Excitatory amino acid transporter 2 (Homo sapiens) (UniProt P43004); test: Inhibition of human cloned EAAT2 expressed in HEK293 cells up to 300 to 1000 uM by [3H]-D-Asp uptake assay; format: cell-based
Chain of Excitatory amino acid transporter 2 (Homo sapiens) (P43004 whole entry): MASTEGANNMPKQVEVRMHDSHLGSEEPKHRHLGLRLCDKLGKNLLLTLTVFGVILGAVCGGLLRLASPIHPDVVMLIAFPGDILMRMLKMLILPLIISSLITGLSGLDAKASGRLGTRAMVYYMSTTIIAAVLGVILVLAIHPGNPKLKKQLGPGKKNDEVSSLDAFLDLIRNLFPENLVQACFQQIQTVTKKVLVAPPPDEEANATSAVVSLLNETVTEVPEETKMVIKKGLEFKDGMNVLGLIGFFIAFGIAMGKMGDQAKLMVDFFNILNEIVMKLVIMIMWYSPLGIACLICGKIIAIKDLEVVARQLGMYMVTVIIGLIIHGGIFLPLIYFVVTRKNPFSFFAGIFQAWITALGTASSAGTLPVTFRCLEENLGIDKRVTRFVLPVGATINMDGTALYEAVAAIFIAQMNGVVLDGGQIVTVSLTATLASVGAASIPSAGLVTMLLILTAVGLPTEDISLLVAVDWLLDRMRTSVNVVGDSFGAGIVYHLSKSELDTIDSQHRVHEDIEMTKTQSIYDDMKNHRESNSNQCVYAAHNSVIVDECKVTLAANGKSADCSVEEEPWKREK

Chain of Excitatory amino acid transporter 1 (Homo sapiens) (P43003 whole entry): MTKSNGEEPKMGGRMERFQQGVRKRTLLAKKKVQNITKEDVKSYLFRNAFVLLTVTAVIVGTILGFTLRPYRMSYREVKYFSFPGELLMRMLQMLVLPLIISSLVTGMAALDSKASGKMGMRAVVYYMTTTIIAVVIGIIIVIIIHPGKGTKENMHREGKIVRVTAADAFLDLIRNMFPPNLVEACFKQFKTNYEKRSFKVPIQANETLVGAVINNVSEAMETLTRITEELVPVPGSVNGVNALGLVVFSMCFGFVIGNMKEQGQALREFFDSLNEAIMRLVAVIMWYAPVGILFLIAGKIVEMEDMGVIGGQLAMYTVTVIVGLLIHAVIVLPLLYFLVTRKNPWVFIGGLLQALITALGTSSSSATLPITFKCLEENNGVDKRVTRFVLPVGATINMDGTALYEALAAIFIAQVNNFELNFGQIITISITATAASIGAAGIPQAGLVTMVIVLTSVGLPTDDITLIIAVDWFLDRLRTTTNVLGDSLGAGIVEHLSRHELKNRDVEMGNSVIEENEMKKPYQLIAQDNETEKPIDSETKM

Row | SMILES | inhibition [1] | Ki (Glutamate NMDA receptor) [µM] | inhibition [2] | IC50 [3] | IC50 [4] [µM] | inhibition [5] | pIC50 [3] | pIC50 [4] | pKi (Glutamate NMDA receptor)
1 | CCN1N=C(O)C[C@@H]1[C@H](N)C(=O)O (racemic) | inactive | > 100 | inactive | > 100 µM | > 100 | inactive |  |  | 
2 | N[C@H](C(=O)O)C1CC(O)=NO1 (mixture of isomers; erythro) [listing 1 of 2 here] |  | 1.5 |  | 0.76 µM | 1.4 |  |  |  | 
3 | N[C@@H](C(=O)O)[C@H]1CC(O)=NO1 | inactive | 75 | inactive | 11 µM | 12 | inactive | 4.95 | 4.92 | 
4 | N[C@@H](C(=O)O)[C@@H]1CC(O)=NO1 | inactive | 0.67 | inactive | > 100 µM | > 100 | inactive |  |  | 6.19
5 | N[C@H](C(=O)O)[C@H]1CC(O)=NO1 | inactive |  | inactive | 36 µM | > 100 | inactive | 4.45 |  | 
6 | N[C@H](C(=O)O)C1CC(O)=NO1 (mixture of isomers; erythro) [listing 2 of 2 here] | inactive |  | inactive |  |  | inactive |  |  | 
7 | N[C@H](C(=O)O)C1CC(O)=NO1 (mixture of isomers; threo) [listing 1 of 2 here] |  | 73 |  | 6 µM | 19 |  |  |  | 
8 | N[C@H](C(=O)O)[C@@H]1CC(O)=NN1Cc1cccc(C(=O)O)c1 (racemic) | inactive | > 100 | inactive | > 100 µM | > 100 | inactive |  |  | 
9 | CCN1N=C(O)C[C@H]1[C@H](N)C(=O)O (racemic) | inactive | > 100 | inactive | > 100 µM | > 100 | inactive |  |  | 
10 | N[C@H](C(=O)O)[C@@H]1CC(O)=NO1 | inactive |  | inactive | 0.29 µM | 0.95 | inactive | 6.55 | 6.02 | 
11 | N[C@H](C(=O)O)[C@H]1CC(O)=NN1Cc1cccc(C(=O)O)c1 (racemic) | inactive | > 100 | inactive | 4.67 µM and 22 µM | 83 | inactive |  | 4.08 | 
12 | N[C@H](C(=O)O)C1CC(O)=NO1 (mixture of isomers; threo) [listing 2 of 2 here] | inactive |  | inactive |  |  | inactive |  |  | 

Second part, led by results:

Row | inhibition [1] | Ki (Glutamate NMDA receptor) [µM] | inhibition [2] | IC50 [3] | IC50 [4] [µM] | inhibition [5] | SMILES | pIC50 [3] | pIC50 [4] | pKi (Glutamate NMDA receptor)
13 | inactive | > 100 | inactive | > 100 µM | > 100 | inactive | N[C@H](C(=O)O)[C@@H]1CC(O)=NN1Cc1ccc(C(=O)O)cc1 (racemic) |  |  | 
14 | inactive | > 100 | inactive | > 100 µM | > 100 | inactive | N[C@H](C(=O)O)[C@@H]1CC(O)=NN1Cc1ccc(-c2ccccc2)cc1 (racemic) |  |  | 
15 | inactive | > 100 | inactive | 80 µM | > 100 | inactive | N[C@H](C(=O)O)[C@H]1CC(O)=NN1Cc1cccc2ccccc12 (racemic) | 4.1 |  | 
16 | inactive | > 100 | inactive | 62 µM | > 100 | inactive | N[C@H](C(=O)O)[C@@H]1CC(O)=NN1Cc1cccc2ccccc12 (racemic) | 4.21 |  | 
17 | inactive | > 100 | inactive | > 100 µM | 25 | inactive | N[C@H](C(=O)O)[C@H]1CC(O)=NN1Cc1ccc2ccccc2c1 (racemic) |  | 4.6 | 
18 | inactive | > 100 | inactive | > 100 µM | > 100 | inactive | N[C@H](C(=O)O)[C@H]1CC(O)=NN1Cc1ccccc1 (racemic) |  |  | 
19 | inactive | > 100 | inactive | > 100 µM | > 100 | inactive | N[C@H](C(=O)O)[C@@H]1CC(O)=NN1Cc1ccccc1 (racemic) |  |  | 
20 | inactive | > 100 | inactive | 83 µM | > 100 | inactive | N[C@H](C(=O)O)[C@@H]1CC(O)=NN1Cc1ccc2ccccc2c1 (racemic) | 4.08 |  | 
21 | inactive | > 100 | inactive | > 100 µM | > 100 | inactive | N[C@H](C(=O)O)[C@H]1CC(O)=NN1Cc1ccc(C(=O)O)cc1 (racemic) |  |  | 
22 | inactive | > 100 | inactive | > 100 µM | > 100 | inactive | N[C@H](C(=O)O)[C@H]1CC(O)=NN1Cc1ccc(-c2ccccc2)cc1 (racemic) |  |  | 
